Reference: paper PMC8571951, “An activity‐based bioprobe differentiates a novel small molecule inhibitor from a LOXL2 antibody and provides renewed promise for anti‐fibrotic therapeutic strategies” (Clinical and Translational Medicine, 2021)

Experiments:
[1] = Tissue levels after single oral dose in the rat; format: in vivo; settings: single oral dose 30 mg/kg, 1 and 4 h
Procedure: FIGURE 2 Characteristics of PXS‐5338 and inhibition of lysyl oxidase‐like 2 (LOXL2) enzymatic activity in vitro and in vivo. (A) Chemical structure of PXS‐5338. […] (B) Tissue levels of PXS‐5338 measured 1 and 4 h after a single oral dose of 30 mg/kg in the rat. […] Average data from three different animals. (C) Concentration‐dependent inhibition of native […] LOX and rh LOXL1‐4 in a standard Amplex Red assay with 30 min pre‐incubation; n ≥3 independent experiments, standard error of mean (SEM). (D) PXS‐5338 inhibits rh LOXL2 in a time‐dependent manner, with increasing potency observed upon longer incubation with the enzyme. LOXL2 activity data devised from Amplex Red assay using putrescine as substrate and varying pre‐incubation times; n ≥3 independent experiments, standard error of mean (SEM). […] AB0023 and the corresponding isotype control antibody GS834298 were kindly provided by Gilead. Concentration‐response curves for the pan‐LOX inhibitor BAPN and LOXL2‐selective inhibitor PXS‐5338 are included for comparison. Data represented as mean ± SD with n = 5/concentration. […] To enable translation of preclinical data into the clinic, human plasma was incubated with different concentrations of PXS‐5338 for 30 min and the PXS‐5878/Simoa® platform used to measure the residual activity. […]

rh LOXL2 = target: T1, rh LOXL2 (Homo sapiens, UniProt Q9Y4K0); assay: Jump dilution assay, rh LOXL2; format: biochemical
T1 sequence (Q9Y4K0 26-774): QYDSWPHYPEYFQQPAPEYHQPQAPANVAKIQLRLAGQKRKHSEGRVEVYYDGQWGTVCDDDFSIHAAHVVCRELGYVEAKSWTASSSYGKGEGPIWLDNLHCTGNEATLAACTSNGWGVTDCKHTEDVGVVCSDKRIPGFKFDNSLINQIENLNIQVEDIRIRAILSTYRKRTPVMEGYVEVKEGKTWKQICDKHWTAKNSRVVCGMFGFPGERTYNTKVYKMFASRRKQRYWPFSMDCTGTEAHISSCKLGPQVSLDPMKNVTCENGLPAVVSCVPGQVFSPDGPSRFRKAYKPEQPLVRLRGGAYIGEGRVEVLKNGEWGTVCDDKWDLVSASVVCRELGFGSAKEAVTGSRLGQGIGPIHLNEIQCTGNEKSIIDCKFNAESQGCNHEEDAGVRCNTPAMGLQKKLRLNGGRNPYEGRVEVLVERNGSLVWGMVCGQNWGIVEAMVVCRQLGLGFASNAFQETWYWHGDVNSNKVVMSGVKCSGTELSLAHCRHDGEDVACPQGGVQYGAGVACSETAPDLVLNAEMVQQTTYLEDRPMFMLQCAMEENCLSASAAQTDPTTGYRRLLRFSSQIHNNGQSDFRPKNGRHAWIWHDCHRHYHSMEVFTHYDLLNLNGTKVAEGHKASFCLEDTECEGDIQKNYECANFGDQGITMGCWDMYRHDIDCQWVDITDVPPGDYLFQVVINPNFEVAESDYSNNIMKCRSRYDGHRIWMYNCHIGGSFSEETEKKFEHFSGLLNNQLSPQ
Source text: FIGURE 1 Characteristics of the activity‐based probe (ABP) PXS‐5878. (A) Chemical structure of PXS‐5878, with functional subunits denoted with different colours. The fluoroallylamine moiety (blue) was designed to interact with the lysine tyrosylquinone (LTQ) co‐factor within the lysyl oxidase active sites. An extended linker (green) was incorporated to provide optimal separation between the reactive functional group and the tag, avoiding unfavourable steric hindrance. Biotin was selected as a tag, with higher sensitivity found to be achieved using a double tag (red), resulting in PXS‐5878 as the preferred ABP. (B) Concentration‐dependent inhibition of recombinant human (rh) lysyl oxidase‐like 1‐4 (LOXL1‐4) and native bovine LOX in a standard Amplex Red assay with 30 min pre‐incubation; n = 3–4 independent experiments, standard error of mean (SEM). Native bovine LOX was used as a surrogate for human LOX as both enzymes have similar pharmacology for fluoroallylamines.[2], [9] (C) Irreversible nature of PXS‐5878 enzyme inhibition confirmed using a jump dilution assay. Enzyme (rh LOXL1, rh LOXL2 or LOXL3) was pre‐incubated with 10 × IC50 of PXS‐5878 for 30 min, then diluted 100x and remaining activity assessed by Amplex Red assay. […] Each value is an average of three experiments. (D) Schematic representation of the assay development to detect lysyl oxidase activity by PXS‐5878 using a direct enzyme‐linked assay with lysyl oxidases as the target analyte. HRP: horseradish peroxidase; TMB: 3,3′,5,5′‐tetramethylbenzidine, a chromogenic substrate. […]
For fluoroallylamine-based inhibitors, replacement of fluorine with hydrogen (leading to the corresponding des-fluoro structures) results in a drop in potency and a switch from irreversible to reversible inhibition. […] (B) For PXS-5878, removal of the fluoro moiety in a simplified analogue results in a significant drop in potency for LOXL2, meaning (ir)reversibility cannot be accurately measured.

Oral bioavailability = settings: in vivo

For `CC(C)c1c(Cc2ccc(S(C)(=O)=O)nc2)c2ncccc2n1C/C(F)=C/CN` [PXS‐5338], the “Tissue penetration / distribution” value [1] was “good penetration, with preferential distribution to the liver followed by the kidney, lung and heart”, the “Mode of inhibition (reversible/irreversible) of LOXL2” value (rh LOXL2) was “irreversibly inhibits the enzyme” and the Oral bioavailability (Oral bioavailability) was “good oral bioavailability”.
